Source: US20240322218A1, “DIAMONDOID SALTS AND RELATED COMPOSITIONS” (Wisconsin Alumni Research Foundation, priority 2021, published 2024)
One block for each compound: values may come before it.

Columns and labels:
[1] = Cyclic voltammetry, cathodic stability / solvent protection; details: comparable electrochemical potentials, FIGS. 6 and 7
From the text: Included representative data was acquired using a platinum counter electrode, a silver/silver nitrate (Ag/AgNO3) acetonitrile non-aqueous reference electrode, and a variety of working electrodes, which spans a wide-range of standard materials and protocols for electrochemical characterization of ionic liquids and organic plastic crystals. The hardware used was a Biologic potentiostat model SP-300.
A representative procedure using acetonitrile as a solvent and Ag as the working electrode was as follows: • 1. Measure the concentration of water in acetonitrile using Karl Fischer titration. • a. Adjust concentration to ˜1000 ppm water in acetonitrile solvent. • 2. Add diamondoid salt containing electrolyte to make a defined concentration in a 4-dram scintillation vial. • 3. Polish the working electrode using alumina slurry and a polishing pad. • 4. Polish the counter electrode and the Ag wire for the reference electrode. • 5. Clean the electrode surfaces and sonicate for ˜5 seconds. Dry the counter and Ag wire electrode. • 6. Prepare the non-aqueous reference electrode by adding new reference electrolyte consisting of 0.01M AgNO3 and 0.1M tetrabutylammonium tetrafluoroborate (TBA BF4) in acetonitrile. Add the silver wire. • 7. Assemble the electrochemical cell using a custom-printed electrochemical cap by adding the counter, reference, and working electrodes. • 8. […]

[2] = literature (Lassegues et al. 2009); cited from earlier work
[3] = Raman spectroscopy of the TFSI stretching mode; format: physicochemical; details: for TFSI Raman shift: neat TFSI salt of the cation, 532 nm laser
From the text: Raman spectra were taken on a LabRAM HR Evolution Horiba microscope using a 532 nm laser and grating of 1800 gr/mm. All Raman spectra were fitted and processed using Horiba's LabSpec6 software. Samples were sealed in glass slides inside of a nitrogen glove box using paraffin wax before spectra were taken.

[4] = Phase characterization / miscibility with [Li][TFSI] (DSC); format: physicochemical; details: for eutectic composition / miscibility gap onset (single phase solid to binary phase solid transition): mixtures with [Li][TFSI]
Procedure: The physical properties of the electrolytes, including solubility, thermal stability, phase transition temperatures, viscosity, and density were measured using a combination of accepted characterization techniques, including differential scanning calorimetry (DSC—measurement of phase transition temperatures), thermogravimetric analysis (TGA—measurement of thermal stability), particle-tracking micro-rheology (viscosity), and hydrometer (density). […] Phase transition temperatures, densities, and viscosities were seen to be dependent on the structures of diamondoid salts, as well as presence of additional “dopant” species, such as lithium salts, other diamondoid salts, or solvent molecules. Melting transitions ranged from below room temperature (below: 15° C.) to above 100° C., which spans the entire definition of an “ionic liquid,” range, as well as “organic plastic crystal” electrolyte range.
[Li][TFSI] and organic salt mixtures were melted together under vacuum at 100° C. The melting point of [DiamImMe][TFSI] and [AdImAd][TFSI] exceeded 100° C., so mixtures with those salts were melted and dried at 150° C. Heating was avoided above 150° C. as [Li][TFSI] is reported to undergo an oxidation reaction at temperatures approaching the melting point of pure [Li][TFSI]. After two days, samples were moved to a nitrogen glove box. Water and oxygen levels in the glovebox were monitored to be less than 0.5 ppm.
Differential scanning calorimetry (DSC) was performed using a TA instruments Q100. Samples were sealed in hermetic pans inside of a glovebox. [AdImMe][TFSI], [Me2AdImMe][TFSI], [DiamImMe][TFSI], and [AdImAd][TFSI] samples were equilibrated at −50° C., held at that temperature for three minutes, and then heated to 250° C. at a rate of 2° C. per minute. [C14MIm][TFSI] samples were cooled at a rate of 1° C. per minute to −50° C., held at that temperature for three minutes, and then heated to 250° C. at 2° C. per minute. […] Since no phase change was present, these faster scans were performed to look for the dissolving of [Li][TFSI].

[5] = Static 7Li NMR linewidth (lithium mobility) of mixtures with [Li][TFSI]; format: physicochemical; details: for Peak Width: static 7Li NMR, 0.1 mole fraction [Li][TFSI] mixtures with the TFSI salt of the cation
Procedure: All NMR measurements were carried out at 11.7 T using a broad band two channel 4 mm standard-bore cross-polarization magic-angle spinning (CP MAS) probe on a Bruker Avance III spectrometer with a proton radio frequency of 500.22 MHz, a ^13C radio frequency of 125.76 MHZ, a ^19F radio frequency 470.66 MHz, and a ^7Li radio frequency 194.40 MHz. The MAS rate was 10 KHz for the CP and ^19F experiments, and static for the ^7Li experiments. 4 mm zirconium rotors with Torlon caps and Viton O-rings were used. Approximately 100 mg of samples was packed into each rotor. All samples were prepared and sealed in a nitrogen glove box. The spinning axis was calibrated to the magic angle using KBr.
^7Li NMR spectra were acquired using […] the same instrumentation used for ^13C NMR. Protocols and pulse sequences were modified to enhance cross-polarization of ^7Li nuclei. Spectra shown represent 16 signal averages with a 0.05 second acquisition time and a 256 second recycle delay between scans. A pulse length of 2 μs was used to maintain a flip angle of less than π/6.
To evaluate the hypothesis that suppression of lithium coordination and incorporation of rigid molecular species can mobilize lithium, solid state NMR spectroscopy of ^7Li was performed to evaluate changes in lithium linewidths as a means of measuring changes in lithium mobility. Static ^7Li NMR spectra indicate the degree of chemical shift anisotropy that the lithium atoms experienced in each salt mixture. […] If the magnetic moment is dependent on the crystallographic orientation, then the lithium is more heavily interacting with the surrounding atoms.

- melting point: 230 to 234.1 °C
Compound: Cn1cc[n+](C23CC4CC(CC(C4)C2)C3)c1.[Br-]

Compound: 1-ethyl-3-methylimidazolium bis(trifluoromethylsulfonyl)imide
- cathodic stability [1]: pronounced cathodic decomposition
- phase transition via Raman spectroscopy [2]: 0.2 mole fraction [Li][TFSI]

Compound: [Br-].c1c[n+](C23CC4CC(CC(C4)C2)C3)cn1C12CC3CC(CC(C3)C1)C2 [Compound 4, 1,3-bis(adamantan-1-yl)imidazolium bromide]
- melting point: 327.5 to 329.9 °C

- TFSI Raman shift [3]: 743 cm⁻¹
- miscibility with lithium bis(trifluorosulfonyl)imide ([4]; lithium salt in the diamondoid salt): up to 50 mol %
- eutectic composition [4]: ~0.5 mol fraction [Li][TFSI]
- miscibility gap onset (single phase solid to binary phase solid transition) [4]: 0.2 mol fraction [Li][TFSI]
- Peak Width [5]: 1634 Hz
Compound: Cn1cc[n+](C23CC4C5CC6CC4C(C2)C(C6)C5C3)c1 [Compound 5, 3-(diamantan-4-yl)-1-methylimidazolium bis(trifluoromethane)sulfonimide]

Compound: O=S(=O)([N-]S(=O)(=O)C(F)(F)F)C(F)(F)F.c1c[n+](C23CC4CC(CC(C4)C2)C3)cn1C12CC3CC(CC(C3)C1)C2 [[AdImAd][TFSI]]
- change of TFSI Raman spectrum in equimolar mixture with [Li][TFSI] [3]: essentially eliminated
- TFSI Raman shift [3]: ca. 740 cm^−1
- TFSI Raman shift ([3]; listed as AdImAd): 740 cm⁻¹
- Peak Width [5]: 3159 Hz

Compound: C[n+]1ccn(C23CC4CC(CC(C4)C2)C3)c1.O=S(=O)([N-]S(=O)(=O)C(F)(F)F)C(F)(F)F [[AdImMe][TFSI]]
- change of TFSI Raman spectrum in equimolar mixture with [Li][TFSI] [3]: no statistical change
- TFSI Raman shift [3]: ca. 745 cm^−1
- TFSI Raman shift ([3]; listed as AdImMe): 745 cm⁻¹
- eutectic composition [4]: ~0.5 mol fraction [Li][TFSI]
- miscibility gap onset (single phase solid to binary phase solid transition) [4]: 0.2 mol fraction [Li][TFSI]
- peak thinner than 0.1 mole fraction [Li][TFSI] in N-ethyl-N-methylpyrrolidinium bis(fluorosulfonyl)imide mixture ([5]; 0.1 mole fraction [Li][TFSI] mixture): 10%
- Peak Width [5]: 454 Hz

Compound: CCCCCCCCCCn1cc[n+](C)c1.O=S(=O)([N-]S(=O)(=O)C(F)(F)F)C(F)(F)F [[C10MIm][TFSI], 1-decyl-3-methylimidazolium TFSI, reference compound]
- TFSI Raman shift [3]: 742 cm⁻¹
- TFSI Raman shift ([3]; listed as [C10ImMe][TFSI]): ca. 742 cm^−1

Compound: CCCCCCCCCCCCCCn1cc[n+](C)c1.O=S(=O)([N-]S(=O)(=O)C(F)(F)F)C(F)(F)F [[C14MIm][TFSI], 1-tetradecyl-3-methylimidazolium TFSI, reference compound]
- TFSI Raman shift [3]: 742 cm⁻¹
- TFSI Raman shift ([3]; listed as [C14ImMe][TFSI]): ca. 742 cm^−1

Compound: O=S(=O)([N-]S(=O)(=O)C(F)(F)F)C(F)(F)F.[Li+] [[Li][TFSI], lithium bis(trifluorosulfonyl)imide, reference compound]
- TFSI Raman shift [3]: ca. 747 cm^−1
- TFSI Raman shift ([3]; listed as Li): 747 cm⁻¹

Compound: C[n+]1ccn(C23CC4CC(C)(CC(C)(C4)C2)C3)c1.O=S(=O)([N-]S(=O)(=O)C(F)(F)F)C(F)(F)F [[Me2AdImMe][TFSI]]
- TFSI Raman shift [3]: 741 cm⁻¹
